Measurements reported in US7585859B2, “PDE4B inhibitors and uses therefor” (Plexxikon, Inc., priority 2004, dated 2009).

What was measured:
[1] = molecular target: T1, PDE4B: The catalytic domain of human PDE4B from S152-S528 (Homo sapiens, UniProt Q07343); assay: PDE4 IC50 determination by Scintillation Proximity Assay, PDE4B; type: biochemical; settings: Table 1B, Formula I compounds; read-out: IC50 PDE4B
T1 construct: His6 (N); thrombin cleavage site (N); made in house; host or cells: E. coli
T1 sequence (Q07343 with tags, fused parts or gaps): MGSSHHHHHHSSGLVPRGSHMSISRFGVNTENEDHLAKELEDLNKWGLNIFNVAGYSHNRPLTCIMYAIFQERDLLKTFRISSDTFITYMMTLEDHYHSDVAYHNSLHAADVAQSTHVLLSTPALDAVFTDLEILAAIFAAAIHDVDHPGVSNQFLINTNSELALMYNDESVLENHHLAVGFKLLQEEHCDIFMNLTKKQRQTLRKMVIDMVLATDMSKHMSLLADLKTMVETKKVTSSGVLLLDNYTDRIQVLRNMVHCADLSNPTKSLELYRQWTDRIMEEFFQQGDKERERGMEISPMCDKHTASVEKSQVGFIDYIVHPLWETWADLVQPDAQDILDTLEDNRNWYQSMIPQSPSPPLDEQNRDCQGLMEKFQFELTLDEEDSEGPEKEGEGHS
Description: (§1) IC50s were determined by Scintillation Proximity Assay (SPA). The principle of the assay is based on the fact that cAMP, the PDE4 substrate, binds weakly to Yittrium Silicate SPA beads, whereas AMP, the product of PDE4 hydrolysis binds strongly. Thus, the extent of PDE4 hydrolysis of a sample of [^3H]cAMP can be measured because only the
(§2) [^3H]AMP produced by PDE4 hydrolysis will bind to the SPA beads and produce a scintillation signal.
(§3) PDE4 enzymes used for IC50 assays were:
(§4) Enzyme was stored in 50% glycerol at −20°.
(§5) In addition to the compound dilutions, each assay plate contained control wells with 1 μl of DMSO (to define 0% enzyme inhibition) or 1 μl of 200 μM roflumilast (to define 100% enzyme inhibition). […] Next, 10 μl of PDE4 enzyme in assay buffer was added and the plates were shaken for 30 s. at 1000 rpm to start the cAMP hydrolysis reaction. The concentrations of enzyme used were: PDE4B, 80 ng/ml; PDE4D, 4 ng/ml; PDE4B2, 2.5 μl of 50% glycerol stock/ml; PDE4D5 0.083 μl of 50% glycerol stock/ml. Assay plates were covered and incubated for 30 min. at 30°. […] The assay plates were covered with clear plastic film, centrifuged for 1 min. at 1000 RPM to settle the SPA beads, and counted using a Wallac TriLux scintillation counter. IC50's were calculated from the raw assay data by non-linear regression curve fitting using the Assay Explorer software package from MDL.

PDE4D = molecular target: T2, PDE4D (Homo sapiens, UniProt Q08499); assay: PDE4 IC50 determination by Scintillation Proximity Assay, PDE4D; type: biochemical; settings: Table 1B, Formula I compounds; read-out: IC50 PDE4D
T2 construct: PDE4D: The catalytic domain of human PDE4B from S3 16-V692; His6 (N); thrombin cleavage site (N); made in house; host or cells: E. coli
T2 sequence (Q08499 380-756): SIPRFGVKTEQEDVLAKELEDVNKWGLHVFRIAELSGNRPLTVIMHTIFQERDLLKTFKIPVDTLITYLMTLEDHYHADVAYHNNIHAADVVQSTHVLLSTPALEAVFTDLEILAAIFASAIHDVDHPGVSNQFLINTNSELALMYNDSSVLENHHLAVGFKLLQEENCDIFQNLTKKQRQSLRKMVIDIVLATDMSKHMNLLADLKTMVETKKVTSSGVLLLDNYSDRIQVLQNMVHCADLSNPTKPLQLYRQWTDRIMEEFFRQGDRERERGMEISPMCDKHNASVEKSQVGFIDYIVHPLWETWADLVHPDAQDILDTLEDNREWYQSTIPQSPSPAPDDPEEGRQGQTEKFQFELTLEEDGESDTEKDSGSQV
Description: as §1, §2, §3, §4, §5

SMILES | IC50 [1] [µM] | IC50 (PDE4D) [µM]
Cc1cc(Cl)ccc1Nc1sc(C(=O)c2cc3cc(Cl)ccc3o2)c(N)c1C#N [Compound 1-23, 4-Amino-5-(5-chloro-benzofuran-2-carbonyl)-2-(4-chloro-2-methyl-phenylamino)-thiophene-3-carbonitrile] | > 10 | > 10
CCOC(=O)c1c(Nc2c(C)cccc2C)sc(C(=O)c2ccc(Br)cc2)c1N [Compound 1-24, 4-Amino-5-(4-bromo-benzoyl)-2-(2,6-dimethyl-phenylamino)-thiophene-3-carboxylic acid ethyl ester] | > 10 | > 10
Cc1ccc(C(=O)c2sc(NCCN3CCCCC3)c(C#N)c2N)c(C)c1 [Compound 1-38, 4-Amino-5-(2,4-dimethyl-benzoyl)-2-(2-piperidin-1-yl-ethylamino)-thiophene-3-carbonitrile] | > 10 | > 10
COc1ccc(OC)c(C(=O)c2sc(NCCN3CCCCC3)c(C#N)c2N)c1 [Compound 1-39, 4-Amino-5-(2,5-dimethoxy-benzoyl)-2-(2-piperidin-1-yl-ethylamino)-thiophene-3-carbonitrile] | > 10 | > 10
COc1ccc(C(=O)c2sc(NCCN3CCCCC3)c(C#N)c2N)c(OC)c1 [Compound 1-41, 4-Amino-5-(2,4-dimethoxy-benzoyl)-2-(2-piperidin-1-yl-ethylamino)-thiophene-3-carbonitrile] | > 10 | > 10
N#Cc1c(NCCN2CCCCC2)sc(C(=O)c2coc3ccccc23)c1N [Compound 1-45, 4-Amino-5-(benzofuran-3-carbonyl)-2-(2-piperidin-1-yl-ethylamino)-thiophene-3-carbonitrile] | > 10 | > 10
N#Cc1c(NCCN2CCCCC2)sc(C(=O)c2ccccc2Cl)c1N [Compound 1-46, 4-Amino-5-(2-chloro-benzoyl)-2-(2-piperidin-1-yl-ethylamino)-thiophene-3-carbonitrile] | > 10 | > 10
N#Cc1c(NCCN2CCCCC2)sc(C(=O)c2cccc(Cl)c2)c1N [Compound 1-47, 4-Amino-5-(3-chloro-benzoyl)-2-(2-piperidin-1-yl-ethylamino)-thiophene-3-carbonitrile] | > 10 | > 10
N#Cc1c(NCCN2CCCCC2)sc(C(=O)c2csc3ccccc23)c1N [Compound 1-48, 4-Amino-5-(benzo[b]thiophene-3-carbonyl)-2-(2-piperidin-1-yl-ethylamino)-thiophene-3-carbonitrile] | > 10 | > 10
COC(=O)C(CCSC)Nc1sc(C(=O)c2cnn(-c3ccccc3)c2C)c(N)c1C#N (centres unmarked) [Compound 1-53, 2-[4-Amino-3-cyano-5-(5-methyl-1-phenyl-1H-pyrazole-4-carbonyl)-thiophen-2-ylamino]-4-methylsulfanyl-butyric acid methyl ester] | > 10 | > 10
COc1ccc(CNc2sc(C(=O)c3cnn(-c4ccccc4)c3C)c(N)c2C#N)cc1OC [Compound 1-54, 4-Amino-2-(3,4-dimethoxy-benzylamino)-5-(5-methyl-1-phenyl-1H-pyrazole-4-carbonyl)-thiophene-3-carbonitrile] | < 10 | < 10
Cc1c(C(=O)c2sc(NC3CCOC3=O)c(C#N)c2N)cnn1-c1ccccc1 (centres unmarked) [Compound 1-56, 4-Amino-5-(5-methyl-1-phenyl-1H-pyrazole-4-carbonyl)-2-(2-oxo-tetrahydro-furan-3-ylamino)-thiophene-3-carbonitrile] | < 10 | > 10
CCc1ccccc1Nc1sc(C(=O)c2cnn(-c3ccccc3)c2C)c(N)c1C#N [Compound 1-58, 4-Amino-2-(2-ethyl-phenylamino)-5-(5-methyl-1-phenyl-1H-pyrazole-4-carbonyl)-thiophene-3-carbonitrile] | < 10 | < 10
Cc1onc(-c2ccccc2)c1C(=O)c1sc(NCCN2CCCCC2)c(C#N)c1N [Compound 1-59, 4-Amino-5-(5-methyl-3-phenyl-isoxazole-4-carbonyl)-2-(2-piperidin-1-yl-ethylamino)-thiophene-3-carbonitrile] | > 10 | > 10
COC(=O)C(CC(C)C)Nc1sc(C(=O)c2c(-c3ccccc3)noc2C)c(N)c1C#N (centres unmarked) [Compound 1-60, 2-[4-Amino-3-cyano-5-(5-methyl-3-phenyl-isoxazole-4-carbonyl)-thiophen-2-ylamino]-4-methyl-pentanoic acid methyl ester] | < 10 | > 10
N#Cc1c(NCCN2CCCCC2)sc(C(=O)c2ccccn2)c1N [Compound 1-63, 4-Amino-2-(2-piperidin-1-yl-ethylamino)-5-(pyridine-2-carbonyl)-thiophene-3-carbonitrile] | > 10 | > 10
COC(=O)C(CC(C)C)Nc1sc(C(=O)c2ccccn2)c(N)c1C#N (centres unmarked) [Compound 1-64, 2-[4-Amino-3-cyano-5-(pyridine-2-carbonyl)-thiophen-2-ylamino]-4-methyl-pentanoic acid methyl ester] | < 10 | > 10

Second part, the compound after the results:

IC50 [1] [µM] | IC50 (PDE4D) [µM] | SMILES
< 10 | < 10 | COc1cc(C#N)c(Nc2sc(C(=O)c3ccc(Cl)cc3)c(N)c2C#N)cc1OC [Compound 1-19, 4-Amino-5-(4-chloro-benzoyl)-2-(2-cyano-4,5-dimethoxy-phenylamino)-thiophene-3-carbonitrile]
< 10 | < 10 | N#Cc1c(Nc2ccccc2)sc(C(=O)Nc2nccs2)c1N [Compound 1-25, 3-Amino-4-cyano-5-phenylamino-thiophene-2-carboxylic acid thiazol-2-yl amide]
< 10 | < 10 | Cc1cc(NC(=O)c2sc(Nc3ccccc3)c(C#N)c2N)no1 [Compound 1-26, 3-Amino-4-cyano-5-phenylamino-thiophene-2-carboxylic acid (5-methyl-isoxazol-3-yl)-amide]
< 10 | > 10 | COC(=O)C(CC(C)C)Nc1sc(C(=O)c2ccc(OC)cc2OC)c(N)c1C#N (centres unmarked) [Compound 1-42, 2-[4-Amino-3-cyano-5-(2,4-dimethoxy-benzoyl)-thiophen-2-ylamino]-4-methyl-pentanoic acid methyl ester]
< 10 | > 10 | COc1ccc(C(=O)c2sc(NC3CCOC3=O)c(C#N)c2N)c(OC)c1 (centres unmarked) [Compound 1-44, 4-Amino-5-(2,4-dimethoxy-benzoyl)-2-(2-oxo-tetrahydro-furan-3-ylamino)-thiophene-3-carbonitrile]
< 10 | < 10 | Cc1c(C(=O)c2sc(Nc3ccccc3F)c(C#N)c2N)cnn1-c1ccccc1 [Compound 1-49, 4-Amino-2-(2-fluoro-phenylamino)-5-(5-methyl-1-phenyl-1H-pyrazole-4-carbonyl)-thiophene-3-carbonitrile]
< 10 | > 10 | Cc1c(C(=O)c2sc(NCCN3CCCCC3)c(C#N)c2N)cnn1-c1ccccc1 [Compound 1-51, 4-Amino-5-(5-methyl-1-phenyl-1H-pyrazole-4-carbonyl)-2-(2-piperidin-1-yl-ethylamino)-thiophene-3-carbonitrile]
< 10 | > 10 | COC(=O)C(CC(C)C)Nc1sc(C(=O)c2cnn(-c3ccccc3)c2C)c(N)c1C#N (centres unmarked) [Compound 1-52, 2-[4-Amino-3-cyano-5-(5-methyl-1-phenyl-1H-pyrazole-4-carbonyl)-thiophen-2-ylamino]-4-methyl-pentanoic acid methyl ester]
